From patent publication US20240050512A1, “REDUCTION OF VIRAL INFECTIONS” (priority 2020, published 2024) come the findings set out here.

This test has as its target T1, cathepsin L protease (Homo sapiens, UniProt P07711).
T1 construct: purchased BPS Bioscience
In words: Protease inhibition, cell-free fluorogenic kit (BPS Bioscience). The class given is biochemical.

T1 sequence (P07711 114-333): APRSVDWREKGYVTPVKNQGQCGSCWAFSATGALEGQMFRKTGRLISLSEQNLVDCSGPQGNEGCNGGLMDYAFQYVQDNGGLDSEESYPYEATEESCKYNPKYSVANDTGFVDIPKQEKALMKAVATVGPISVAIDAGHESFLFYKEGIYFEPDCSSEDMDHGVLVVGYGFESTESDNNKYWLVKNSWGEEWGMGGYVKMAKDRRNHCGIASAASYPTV

In the case of `CC(C)C[C@H](NC(=O)[C@H]1O[C@@H]1C(=O)O)C(=O)NCCCCN=C(N)N` [Composition E-64, E-64], the Percentage inhibition is on record as −15.5% (0.0001 μM) and −1.1 ^ % (0.001 μM).
